Source: patent US12516286B2, “Method for producing dopaminergic neuron progenitor cell” (KYOTO UNIVERSITY, priority 2016, dated 2026)

Legend:
QHJ-I01 human iPS cell = assay: Corin-positive ratio by flow cytometry with anti-Corin antibody on Day 12 after preconditioning of iPS cells in medium for maintaining undifferentiated state; assay type: cell-based; conditions: for Corin-positive ratio as compared with the control: summary of Table 1
Method: QHJ-I01, which is a human iPS cell, has been produced by introducing of Oct3/4, Sox2, KIf4, L-MYC, LIN28, and a dominant-negative form of p53 (Okita, K., et al., Stem Cells, 31, 458-66 (2013); WO2013/176233) into human PBMC by an episomal vector. The cells were received from Professor Yamanaka of Kyoto University, et al.
The iPS cells were cultured according to the method described by Miyazaki T, et al., Nat Commun. 3: 1236, 2012. Specifically, maintenance culture was performed in a medium for maintaining undifferentiated state containing FGF2 (bFGF) on a 6-well plate coated with Laminin-511 E8.
24 hours before the start of differentiation induction by exchange with a differentiation medium, the medium was exchanged with StemFit AK03N (Ajinomoto Healthy Supply Co., Inc.), which was a medium for maintaining undifferentiated state containing SAG (Enzo Life Sciences, Inc., 300 nM), an SHH signal stimulant, to obtain a cell population comprising iPS cells.
The cell population comprising iPS cells after culturing for 24 hours in the presence of SAG as described above was dissociated using TrypLE CTS (Life Technologies), and the cells were inoculated on a 6-well plate coated with Laminin-511 E8 (iMatrix-511, Nippi, Inc.) prepared separately, in an amount of 5×10^6 cells per well. The medium was replaced with a differentiation medium [a basal medium A [GMEM (Invitrogen) supplemented with 8% KSR (Invitrogen), 1 mM Sodium pyruvate (Invitrogen), 0.1 mM MEM nonessential amino acid (Invitrogen), and 0.1 mM 2-Mercaptoethanol (WAKO)] containing 10 μM Y-27632 (WAKO), 0.1 μM LDN 193189 (Stemgent, Inc.), and 0.5 μM A83-01 (WAKO)]. On the next day (Day 1), the medium was replaced with Basal Medium A supplemented with 0.1 μM LDN193189, 0.5 μM A83-01, 2 μM Purmorphamine (WAKO), and 100 ng/mL FGF8 (WAKO). Two days later (Day 3), the medium was replaced with Basal Medium A supplemented with 0.1 μM LDN193189, 0.5 μM A83-01, 2 μM Purmorphamine, 100 ng/mL FGF8, and 3 μM CHIR99021 (WAKO). Four days later (Day 7), the medium was replaced with Basal Medium A supplemented with 0.1 μM LDN193189 and 3 μM CHIR99021. During the above period, the medium was replaced once a day. A flow cytometry analysis using an anti-Corin antibody was performed on the 12th day of the start of differentiation induction (Day 12) (FIG. 1).
An anti-Corin antibody was prepared by the following method. First, from the Corin gene of Macaca fascicularis, a gene sequence encoding a part of the extracellular domain (79th-453rd amino acids) was introduced into 293E cells, and the cells were then allowed to express the extracellular-domain fragment of Corin protein, followed by collecting the protein. Mice were immunized with the recovered protein, and lymphocytes were then extracted and fused with myeloma cells. From the cell population after the fusion, a clone having reactivity with Corin was selected. The culture supernatant of the clone was used after attaching a fluorescent label as the anti-Corin monoclonal antibody.
Five days after the culture in Basal Medium A supplemented with 0.1 μM of LDN193189 and 3 μM CHIR99021, namely on the 12th day of the start of differentiation induction (Day 12), the cells were dissociated using TrypLE CTS, and suspended in Ca^2+Mg^2+-free HBSS (Invitrogen) supplemented with 2% FBS, 10 μM Y-27632 (WAKO), 20 mM D-glucose, and 50 μg/mL penicillin/streptomycin. The anti-Corin antibody was added to the suspension, and the resulting mixture was incubated at 4° C. for 20 minutes, the cells were sorted using FACS (BD) to collect Corin-positive cells, and the cell number was counted.
Similar to Example 1, experiments in which the concentration of SAG added was changed, and experiments in which A83-01 or LDN 193189 was added at the same time with SAG, were conducted, and the Corin-positive ratio were measured.

[1] = system: model rat of Parkinson's disease (6-OHDA uni-laterally administered rat); assay: Cell transplantation into striatum of Parkinson's disease model rat, graft staining with TH and HuNu after 4 weeks; assay type: in vivo; conditions: for TH-ratio with respect to HuNu-positive cells as 100%: graft of cells cultured in the presence of SAG (300 nM)
Method: In this case, the medium was replaced in half every 3 days.
A plurality of cell aggregates containing 4×10^5 cells obtained as described above were suspended in 2 μL of physiological saline, and injected into the striatum of a model rat of Parkinson's disease (6-OHDA uni-laterally administered rat) using a 22 gauge injection needle, and the appearance of the graft after 4 weeks was observed (FIG. 5).

LPF 11 human iPS cell = assay: Corin-positive ratio on Day 12, iPS cells generated by another method; assay type: cell-based; conditions: SAG 300 nM preconditioning vs absence of SAG, FIG. 4
From the text: LPF 11, a human iPS cell, has been established by introducing Oct3/4, Sox2, KIf4, and L-MYC into human PBMC by a Sendai virus vector (Cytotune 2.0 L, produced by ID Pharma Co., Ltd.), and culturing the same by the method according to the protocol published by Kyoto University (Establishment, maintenance culture of human iPS cells; CiRA Ff-iPSC_protocol_JP_v140310, //www.cira.kyoto-u.ac.jp/j/research/protocol.html) using StemFit medium (produced by Ajinomoto Healthy Supply Co., Inc. Inc.), and Laminin-511 E8 (produced by Nippi, Inc.).
Using this iPS cell, culturing and differentiation induction were carried out in the same manner as in Example 1 and the percentage of the number of Corin-positive cells with respect to the total cell number was measured on the 12th day (Day 12) using an anti-Corin antibody.

| Structure (SMILES) | percentage of Corin-positive cells (QHJ-I01 human iPS cell; SAG 300 nM for 24 hours before differentiation induction vs absence of SAG, FIG. 2) | Corin-Positive Rate (%) (QHJ-I01 human iPS cell; SAG (10 nM) added to medium for maintaining undifferentiated state before differentiation induction) | Corin-Positive Rate (%) (QHJ-I01 human iPS cell; SAG (300 nM)) | Corin-positive ratio as compared with the control (QHJ-I01 human iPS cell) | ratio of the number of TH-positive cells to the number of HuNu-positive cells, SAG-treated cell graft vs non-treated cell graft ([1]; 4 weeks after grafting) | TH-ratio with respect to HuNu-positive cells as 100% ([1]; 4 weeks) [%] | TH-ratio with respect to HuNu-positive cells as 100% ([1]; 4 weeks after grafting, average) [%] | TH-ratio with respect to HuNu-positive cells as 100% ([1]; 4 weeks, individual (2)) [%] | percentage of Corin-positive cells (LPF 11 human iPS cell) | Corin-Positive Rate (%) (QHJ-I01 human iPS cell; LDN193189 (100 nM) alone) | Corin-Positive Rate (%) (QHJ-I01 human iPS cell; A83-01 (500 nM) alone) |
| --- | --- | --- | --- | --- | --- | --- | --- | --- | --- | --- | --- |
| CNC1CCC(N(Cc2cccc(-c3ccncc3)c2)C(=O)c2sc3ccccc3c2Cl)CC1 (stereo not shown) [SAG] | increased | 22.7 | 32.1 | improves depending on the concentration of SAG added | no difference | 6.1 | 9.24 | 12.37 | increased | – | – |
| c1ccc2c(-c3cnn4cc(-c5ccc(N6CCNCC6)cc5)cnc34)ccnc2c1 [LDN193189] | – | – | – | no effect | – | – | – | – | – | 12.6 | – |
| Cc1cccc(-c2nn(C(=S)Nc3ccccc3)cc2-c2ccnc3ccccc23)n1 [A83-01, 3-(6-methyl-2-pyridinyl)-N-phenyl-4-(4-quinolinyl)-1H-pyrazole-1-carbothioamide] | – | – | – | no effect | – | – | – | – | – | – | 12.4 |
